Numbers after ± are expanded uncertainties.
Settings: 298.15 K; 101.33 kPa; Liquid; Vibrating tube method

Row | SMILES | mass density [kg/m3]
1 | CCCCCCCCCCCC [dodecane] | 741.54 ± 0.58
2 | CCCCCCCCCC [decane] | 726.43 ± 0.25
3 | O=Cc1ccccc1 [benzaldehyde] | 1042.94 ± 0.26

More lines, now with the values ahead:

Row | mass density [kg/m3] | SMILES
4 | 770.21 ± 0.24 | CCCCCCCCCCCCCCCC [hexadecane]
5 | 759.27 ± 0.24 | CCCCCCCCCCCCCC [tetradecane]

Source: the NIST ThermoML archive (doi:10.1016/j.fluid.2014.01.013)
